Laboratory results reported in patent EP0194548A2, “Sulfonylaminoethyl compounds, medicines containing these compounds and process for their preparation” (Dr. Karl Thomae GmbH, priority 1985, dated 1986).

Legend:
[1] = tested on: Thrombozytenaggregation in plättchenreichem Plasma; assay: Collagen-induced platelet aggregation (method of BORN and GROSS) in platelet-rich plasma; format: cell-based, Versuchspersonen; conditions: 10 min, plasma incubated 10 min with substance at 37°C, 50% change of optical density
Source text: Die Thrombozytenaggregation wird nach der Methode von BORN und GROSS (J. Physiol. 170, 397 (1964)) in plättchenreichem Plasma gesunder Versuchspersonen gemessen. Zur Gerinnungshemmung wird das Blut mit […] 3,14 % im Volumenverhältnis 1:10 versetzt
Collagen-induzierte Aggregation
Der Verlauf der Abnahme der optischen Dichte der Plättchensuspension wird nach Zugabe der aggregationsauslösenden Substanz photometrisch gemessen und registriert. Aus dem Neigungswinkel der Dichtekurve wird auf die Aggregationsgeschwindigkeit geschlossen. Der Punkt der Kurve, bei dem die größte Lichtdurchlässigkeit vorliegt, dient zur Berechnung der "optical dens^ity".
Die Collagen-Menge wird möglichst gering gewählt, aber doch so, daß sich eine irreversibel verlaufende Reaktionskurve ergibt. Verwendet wird das handelsübliche Collagen der Firma Hormonchemie, München.
Vor der Collagen-Zugabe wird das Plasma jeweils 10 Minuten mit der Substanz bei 37°C inkubiert.
Aus den erhaltenen Meßzahlen wird graphisch eine EC50 berechnet, die sich auf eine 50%ige Änderung der "optical density" im Sinne einer Aggregationshemmung bezieht.

Mäusen [2] = assay: Prolongation of bleeding time (tail tip cut) after oral dosing; format: in vivo; conditions: conscious mice, 10 mg/kg p.o., 1 hour after dosing, 5 animals per test, versus controls without substance
Method: Da im Falle einer Verletzung die erste rasche Blutstillung durch Thrombozyten geschieht, läßt sich beim Setzen einer standardisierten Verletzung die Funktion der Thrombozylen mit Hilfe der Messung der Blutungszeit gut bestimmen. Die normale Blutungszeit beträgt beim Menschen etwa 1 bis 3 min., setzt aber leistungsfähige und in genügender Zahl vorhandene Thrombozyten voraus. Bei einer normalen Thrombozytenzahl weist also eine verlängerte Blutungszeit auf eine gestörte Funktion der Thrombozyten hin. Wir finden dies z.B. bei einigen angeborenen Thrombozytenfunktionsstörungen. Will man auf der anderen Seite die Neigung zu spontanem Zusammenballen der Thrombozyten mit der Folge von Gefäßverschlüssen im arteriellen System durch Medikamente verhindern, so muß folglich bei einer erfolgreichen thrombozytenwirksamen Therapie die Blutungszeit unter Substanzeinfluß verlängert werden. Bei einer thrombozytenwirksamen Substanz ist also eine Verlängerung der Blutungszeit und - da das plasmatische Gerinnungssystem ja nicht berührt wird -eine normale Blutgerinnungszeit zu erwarten.
Zur Bestimmung der Blutungszeit wurden die zu untersuchenden Substanzen wachen Mäusen in einer Dosis von 10 mg/kg p.o. appliziert. Nach einer Stunde wurde von der Schwanzspitze jedes Tieres ca. 0,5 mm abgeschnitten und das austretende Blut in Abständen von 30 Sekunden bis zum Sistieren der Blutung vorsichtig mit einem Filterpapier abgetupft. Die Zahl der so erhaltenen Bluttropfen ergibt ein Maß für die Blutungszeit (5 Tiere pro Versuch). Die folgenden Zahlenangaben bedeuten Prozent-Verlängerung gegenüber Kontrollen ohne Substanzgabe: […]

Mäusen [3] = assay: Orientating acute toxicity after a single oral dose; format: in vivo; conditions: mice, groups of 10, observation time 14 days
Source text: Die akute Toxizität der zu untersuchenden Substanzen wurde orientierend an Gruppen von je 10 Mäusen nach oraler Gabe einer Einzeldosis bestimmt (Beobachtungszeit 14 Tage): […]

SMILES	EC50 [1] [µM]	Verlängerung der Blutungszeit in % nach 1 Stunde (Mäusen [2]) [%]	Orientierende akute Toxizität (Mäusen [3]; single oral dose 1.000 mg)	Orientierende akute Toxizität (Mäusen [3]; single oral dose 250 mg)
O=C(O)CCC(=O)c1ccc(CCNS(=O)(=O)c2ccc(Cl)cc2)cc1 [Substanz A, 3-[4-(2-(4-Chlorbenzolsulfonyl)-aminoäthyl)-benzoyl]-propionsäure]	4	108	1.000 mg (0 von 10 Tieren gestorben)	
COCCOC(=O)CCC(=O)c1ccc(CCNS(=O)(=O)c2ccccc2)cc1 [Substanz B, 3-[4-(2-Benzolsulfonylaminoäthyl)-benzoyl]-propionsäure-ß-methoxyäthylester]	> 10	110	1.000 mg (0 von 10 Tieren gestorben)	
O=C1CCC(c2ccc(CCNS(=O)(=O)c3ccccc3)cc2)=NN1 [Substanz C, 6-[4-(2-Benzoylsulfonylaminoäthyl)-phenyl]-4,5-dihydro-pyridazin-(2H)-3-on]	3.3	145	1.000 mg (0 von 10 Tieren gestorben)	
Cc1ccc(S(=O)(=O)NCCc2ccc(C3=NNC(=O)CC3C)cc2)cc1 (stereo not drawn) [Substanz D, 6-[4-(2-(p-Toluolsulfonyl)-aminoäthyl)-phenyl]-5-methyl-4,5-dihydro-pyridazin-(2H)-3-on]	2.4	187	1.000 mg (0 von 10 Tieren gestorben)	
O=C1CCC(c2ccc(OCCNS(=O)(=O)c3ccccc3)cc2)=NN1 [Substanz E, 6-[4-(2-Benzolsulfonylaminoäthoxy)-phenyl]-4,5-dihydro-pyridazin-(2H)-3-on]	3	233	1.000 mg (0 von 10 Tieren gestorben)	
O=C(O)CCC(=O)c1ccc(CCNS(=O)(=O)c2ccccc2)cc1 [Substanz F, 3-[4-(2-Benzolsulfonylamino-äthyl)-benzoyl]-propionsäure]	3	>266		250 mg (0 von 10 Tieren gestorben)
